The source of these data is PubChem BioAssay (NCI).

Where “and” joins values, the source holds several entries; their conditions need not be identical. Equal entries are not always repeated.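 Exposure lasted 48 hours, with cells grown in 96-well plates and compounds tested at five concentrations. GI50 is the concentration that inhibits growth by half. The concentration for full growth arrest is given as TGI.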 Bounds are passed on as bounds.

Common to all, as to assay: NCI-60 cell line screen, 48 h
Assay [1] has as its system UACC-62 melanoma.
Assay [2] concerns CCRF-CEM leukemia.
In assay [3] the test system is SW-620 colon.
For assay [4], the system named is HOP-92 NSCLC.
In assay [5] the test system is NCI-H226 lung.
Assay [6] concerns A549 NSCLC.
The subject of assay [7] is ACHN renal.
Assay [8] deals with CAKI-1 renal.
The test system of assay [9] is SF-268 CNS.
Assay [10] has as its system SF-295 CNS.

Consider `Cc1nc(C(N)=S)sc1C(=O)/C=C/c1c(O)ccc2ccccc12`, for which the TGI in assay [1] is greater than 87.9 µM; in [2] it was 54.5 µM; in assay [3] it was greater than 100 µM; in assay [4], greater than 100 µM; in [5], greater than 100 µM; in assay [6] it was greater than 100 µM. Moreover, the TGI in assay [7], in assay [8], in assay [9] and in [10] was greater than 100 µM throughout.

For the compound `COC(=O)C1(O)CC(=O)CCC1c1ccc(OC)cc1` (stereo unspecified), the TGI in assay [1], in assay [2], in assay [3], in [4], in assay [5] and in [6] was greater than 100 µM each time. Further, the TGI in [7], in assay [8], in assay [9] and in [10] was greater than 100 µM each time.

Consider `CCNC(=O)COc1ccc(Cl)cc1Cl`, for which the TGI in assay [3], in assay [4], in assay [5], in assay [6], in assay [7] and in [8] was greater than 100 µM in each case. The TGI in assay [9] and in assay [10] was greater than 100 µM in each case.

In the case of `N/N=C1\C(=O)N(CCc2ccccc2)C(=O)C1C(=O)NCCc1ccccc1` (stereo unspecified), the TGI in assay [1], in assay [2], in assay [3], in assay [4], in [5] and in [6] was greater than 100 µM throughout. The TGI in assay [7], in [8], in [9] and in [10] was greater than 100 µM throughout.

Regarding `CCNC(=O)c1noc(-c2cc(C(C)C)c(O)cc2O)c1-c1ccc(CN2CCOCC2)cc1`, the GI50 in [1] was 0.0333 µM; in assay [2], 0.0321 µM; in assay [3], less than 0.01 µM; in assay [4], 0.0252 µM; in assay [5] it was 0.0409 µM; in assay [6], 0.0221 µM. Moreover, the GI50 in assay [7] is 0.0373 µM; in [8] it was 0.059 µM; in assay [9], 2.44 µM; in assay [10], 0.0287 µM. The TGI in assay [1] was 4.92 µM; in assay [2] it was greater than 75.4 µM; in assay [3], 23.9 µM; in assay [4], 0.0738 µM; in assay [5], 26.6 µM; in assay [6], 22.7 µM. The TGI in assay [7] was greater than 100 µM; in assay [8], greater than 100 µM; in assay [9], 34.9 µM; in [10] it was 11.2 µM.

With `COc1cnc2c(c1)C(=O)c1c-2n(CCCN2CCN(C)CC2)c(=O)c2cc([N+](=O)[O-])ccc12`, the GI50 is 0.0683 µM in assay [2]; 0.0227 µM in assay [3]; 1.82 µM in [4]; 13.7 µM in assay [5]; 0.128 µM in [6]; 1.34 µM in [8]. The GI50 is 0.206 µM in assay [9] and 0.0698 µM in assay [10]. Also, the TGI worked out at 0.834 µM in [2]; 1.38 µM in [3]; 4.37 µM in assay [4]; 35.8 µM in assay [5]; 0.337 µM in assay [6]; 2.8 µM in assay [8]. In addition, the TGI in [9] was 1.64 µM; in assay [10] it was 0.483 µM.

As to `CC(C)(Oc1ccc(/C=C/C(=O)c2ccc(Cl)cc2)cc1)C(=O)Nc1c(Cl)cccc1Cl`, the TGI in [1] was 38 µM; in assay [3], 27.8 µM; in assay [4] it was 91.5 µM; in assay [5], 51.5 µM; in assay [6] it was greater than 100 µM; in [7], 53 µM. Further, the values for the TGI in assay [8], in assay [9] and in assay [10] were 48.9 µM, 90.2 µM and 49.6 µM, respectively.

As to `CCOC(=O)c1cc2c3c(c(O)c(OC)c2s1)N(C(=O)c1cc2c4c(c(O)c(OC)c2s1)N(C(C)=O)CC4)CC3`, the TGI in [1], in [2], in [3], in [4], in assay [5] and in assay [6] was greater than 100 µM each time. For the same compound, the TGI in assay [7], in [8], in [9] and in assay [10] was greater than 100 µM each time.

Regarding `O=C(O)[C@@H](Cc1ccc2ccccc2c1)NC(=O)n1c2ccccc2c2ccccc21`, the GI50 in assay [1] was 0.435 µM; in assay [2], 0.77 µM; in assay [3], 4.04 µM; in [4] it was 1.33 µM; in assay [5], 2.1 µM; in [6] it was 4.36 µM. In addition, the GI50 in assay [7] was 4.83 µM; in [8], 3.54 µM; in assay [9] it was 3.77 µM; in assay [10], 2.29 µM. The TGI was 16.1 µM in [1]; 18 µM in [2]; greater than 100 µM in assay [3]; 7.74 µM in [4]; 9.32 µM in [5]; greater than 100 µM in assay [6]. For the same compound, the TGI in assay [7] worked out at 93.6 µM; in assay [8] it was 46.2 µM; in [9], 36.2 µM; in assay [10], 8.97 µM.

As for `O=C(O)[C@H](c1ccccc1)[C@@H](C(=O)O)c1ccccc1`, the TGI in [1], in assay [3], in [4], in assay [5], in assay [6] and in assay [7] was greater than 100 µM throughout. Moreover, the TGI in assay [8], in assay [9] and in [10] was greater than 100 µM each time.

In the case of `CCC1=CC2CN(C1)Cc1c([nH]c3ccccc13)[C@@](C(=O)OC)(c1cc3c(cc1OC)N(C)[C@H]1[C@@](O)(C(=O)OC)[C@H](OC(C)=O)[C@]4(CC)C=CCN5CC[C@]31[C@@H]54)C2` (stereo partly specified), the GI50 in [1] is 0.00589 µM; in [2], 0.00879 µM; in [3], less than 0.005 µM; in assay [4], 1.51 µM; in assay [5], 19.8 µM; in assay [6], 0.0114 µM and 0.0208 µM. Further, the GI50 in assay [7] was 0.407 µM and 1.27 µM; in assay [8], 7.86 µM and 6.85 µM; in [9], 0.122 µM and 0.145 µM; in assay [10], 0.0151 µM and 0.0231 µM. Also, the TGI is 50 µM and > 100 µM in assay [1]; 20.2 µM in assay [2]; 50 µM and > 100 µM in [3]; 97.1 µM in [4]; 50 µM in assay [5]; 50 µM and > 100 µM in assay [6]. Also, the TGI in [7] was 50 µM and > 100 µM; in [8], 50 µM and > 100 µM; in assay [9], 50 µM and 91 µM; in assay [10], 50 µM and > 100 µM.

On to `Nc1ncnc2c1ncn2CC(O)CO` (stereo unspecified), for which the TGI in assay [1], in [2], in assay [3], in [4], in assay [5] and in assay [6] was greater than 100 µM each time. Also, the TGI in assay [8], in assay [9] and in assay [10] was greater than 100 µM each time.

On to `COc1ccc(C(=O)NCCN(C)C)c2nc3ccccc3nc12`, for which the TGI in assay [1] is 17.8 µM; in assay [3], greater than 30.5 µM; in assay [4], greater than 27.4 µM; in assay [5], 16.8 µM; in [6], greater than 100 µM; in [7] it was greater than 100 µM. The TGI in assay [8] was greater than 36.2 µM; in assay [10], greater than 36.1 µM.

Regarding `Cc1ccc(-c2nc3nc(-c4ccc(F)cc4)nc(N4CCCNCC4)c3o2)cc1`, the GI50 was 1.83 µM in assay [1]; 0.293 µM in assay [2]; 0.742 µM in assay [3]; 1.32 µM in assay [4]; 1.96 µM in assay [5]; 1.73 µM in assay [7]. In addition, the GI50 in [8] was 1.44 µM; in [9], 1.73 µM; in assay [10], 1.82 µM. Further, the TGI in [1] was 3.47 µM; in assay [2], 1.04 µM; in assay [3], 2.17 µM; in assay [4], 2.88 µM; in assay [5], 4.05 µM; in assay [7], 3.1 µM. The results for the TGI in assay [8], in [9] and in [10] were 2.74 µM, 3.44 µM and 3.35 µM, respectively.

For the compound `C[N+](C)(C)CC1CCCCC1O` (stereo unspecified), the TGI in assay [1], in [2], in assay [3], in assay [4], in [5] and in assay [7] was greater than 100 µM in each case. The TGI in [8], in assay [9] and in assay [10] was greater than 100 µM throughout.

On to `C=CC(OCC)(OCC)OCC`, for which the TGI in [1], in assay [2], in assay [4], in [5], in assay [6] and in assay [7] was greater than 100 µM in each case. Moreover, the TGI in [8], in assay [9] and in assay [10] was greater than 100 µM in each case.

`CCOC(=O)NC(=O)c1cn(CCN2CCN(C(=O)CCCCCCCCCCC(=O)N3CCN(CCn4cc(C(=O)NC(=O)OCC)c(=O)[nH]c4=O)CC3)CC2)c(=O)[nH]c1=O`: the TGI in assay [2], in assay [3], in assay [4], in [5], in assay [6] and in assay [7] was greater than 100 µM in each case. Further, the TGI in assay [8], in [9] and in assay [10] was greater than 100 µM throughout.

`N#CNC(N)=Nc1ccc(Cl)cc1`: the TGI in [1], in assay [3], in assay [4], in assay [5], in assay [6] and in assay [7] was greater than 100 µM in each case. Besides, the TGI in [8], in assay [9] and in [10] was greater than 100 µM throughout.

Regarding `C=C1C(=O)O[C@H]2[C@H]1CC/C(C=Nc1c(N)cc(C(F)(F)F)cc1Br)=C\CC[C@@]1(C)O[C@@H]21`, the GI50 in assay [1] is 1.41 µM; in assay [2], 0.33 µM; in [3], 1.53 µM; in assay [4] it was 1.17 µM; in [5] it was 2.09 µM; in [6], 2.03 µM. Also, the GI50 in [7] is 1.41 µM; in [9], 1.4 µM; in assay [10], 2.66 µM. Besides, the TGI in [1] worked out at 2.96 µM; in [2], 11.2 µM; in [3] it was 3.71 µM; in assay [4] it was 2.75 µM; in assay [5], 5.29 µM; in assay [6], 5.11 µM. The TGI came to 2.71 µM in [7], 3.34 µM in assay [9] and 7.96 µM in assay [10].

For `COc1cc2c(cc1OC)C(C(=O)c1cccc(OC)c1OC)C(=O)N(C)CC2` (stereo unspecified), the TGI in assay [1], in [2], in assay [3], in assay [4], in assay [5] and in [6] was greater than 100 µM throughout. Besides, the TGI in assay [7], in assay [8] and in [9] was greater than 100 µM throughout.

As for `CC(=O)N1CCC2(c3ccccc3N(C(C)=O)C2c2ccc(O)cc2)C1C(=O)O` (stereo unspecified), the TGI in assay [1], in assay [2], in assay [3], in assay [4], in [5] and in assay [6] was greater than 100 µM in each case. Also, the TGI in assay [7], in [9] and in assay [10] was greater than 100 µM in each case.

For `COc1ccc(C(=O)c2ccc([As]=O)cc2)cc1` (stereo unspecified), the GI50 in assay [2] is 0.0296 µM; in assay [3], 0.0313 µM; in assay [4], 0.13 µM; in [5], 0.169 µM; in [6], 0.158 µM; in assay [7], 0.0333 µM. Besides, the GI50 is 0.064 µM in [8], 0.0348 µM in assay [9] and 0.146 µM in assay [10]. Also, the TGI was 0.171 µM in assay [2]; 0.111 µM in assay [3]; 0.262 µM in assay [4]; 0.459 µM in [5]; 0.348 µM in assay [6]; 0.119 µM in assay [7]. Besides, the TGI in assay [8] worked out at 0.201 µM; in assay [9], 0.136 µM; in assay [10], 0.285 µM.

For the compound `CC(=O)/C(=C/c1ccccc1F)C(=O)c1ccccc1`, the TGI in assay [1] was greater than 100 µM; in assay [3] it was 56.1 µM; in assay [4] it was greater than 100 µM; in assay [5], greater than 100 µM; in assay [6], greater than 100 µM; in assay [7], greater than 100 µM. In addition, the TGI in assay [8], in assay [9] and in assay [10] was greater than 100 µM each time.
